Laboratory results published in patent US10028992B2, “Methods of treating muscular dystrophy” (BOARD OF REGENTS OF THE NEVADA SYSTEM OF HIGHER EDUCATION …, priority 2012, dated 2018).
Read-outs that look alike come from different tables or passages of the source.

System: α7 integrin promoter
Test: muscle cell-based assay: α7βgal+/− myoblasts/myotubes, LacZ reporter, β-galactosidase cleavage of FDG
Set-up: species or system mouse
Settings: for EC50: Mus musculus, read-out: Fit LogAC50 (converted)
In short: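 Fluorescein generated from FDG by β-galactosidase reports α7 integrin promoter activity in differentiated myoblasts from α7+/− LacZ knock-in pups. Screening hits then went to dose-response, western blotting and a myostatin counterscreen.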

[1] = given as log AC50 (negative values)
[2] = curve class number, key not given
[3] = curve fit, activity at zero concentration

Row | Structure (SMILES) | EC50 [1] [µM] | Score (Table 12 compound data) | Fit Curve Class [2] | Fit HillSlope (curve fit) | Fit Zero Activity [%] [3] [%] | Fit Infinite Activity [%] (curve fit, activity at infinite concentration) | Fit LogAC50 [1] | Fit Curve Class | Fit HillSlope | Fit Zero Activity [%] | Score | EC50 [µM]
1 | CC(C(=O)Nc1ccc(C#N)cc1)N(C)CC(=O)Nc1cccc(F)c1 (centres unmarked) [Compound 186] | 3.98 | 42 | 2.1 | 0.9 | −45.5302 | – | – | – | – | – | – | –
2 | COC(=O)C1SCC2C(=O)N(Cc3ccc(F)cc3)CC(=O)N21 (centres unmarked) [Compound 187] | 8.91 | 42 | 2.1 | 1.3437 | −54.3669 | – | – | – | – | – | – | –
3 | COc1ccc(-c2cc(COc3ccccc3)on2)cc1 [Compound 188] | 10 | 42 | 2.1 | 4.5045 | 0.195 | – | – | – | – | – | – | –
4 | Sc1nnc(Cn2cnc3ccccc32)n1-c1ccccc1 [Compound 189] | 8.91 | 42 | 2.2 | 0.8 | 8.5392 | – | – | – | – | – | – | –
5 | CN(C#N)c1nccc(-c2cccs2)n1 [Compound 190] | 11.2 | 42 | 2.1 | 2.0937 | −28.9068 | – | – | – | – | – | – | –
6 | O=Cc1cnc(N2CCCCC2)s1 [Compound 191] | 11.2 | 42 | 2.1 | 4.9549 | −19.3188 | – | – | – | – | – | – | –
7 | Nc1nccc(-c2ccc(-n3cnc4ccccc43)cc2)n1 [Compound 192] | 11.2 | 42 | 2.2 | 4.095 | 2.4789 | – | – | – | – | – | – | –
8 | COc1cc2c(cc1OC)C(NC(=O)C(F)(F)F)C/C2=N\O (centres unmarked) [Compound 193] | 11.2 | 42 | 2.1 | 4.095 | 2.547 | – | – | – | – | – | – | –
9 | COc1ccc(N2CCN(CCC3Oc4cc([N+](=O)[O-])ccc4NC3=O)CC2)cc1 (centres unmarked) [Compound 194] | – | 42 | 2.2 | 1.7137 | −2.9581 | 73.9084 | −5.05 | – | – | – | – | –
10 | N#Cc1ccc(OCC(O)CS(=O)(=O)c2ccccc2)cc1 (centres unmarked) [Compound 195] | 10 | 42 | 2.1 | 4.045 | −9.8792 | – | – | – | – | – | – | –
11 | Cc1ccccc1C(=O)Nc1nnc(SC(C)C)s1 [Compound 196] | 10 | 42 | 2.2 | 2.8473 | −0.5091 | – | – | – | – | – | – | –
12 | CC(=O)c1cccc(NC(=O)C(=O)Nc2cccc3ccccc23)c1 [Compound 197] | 8.91 | 42 | 2.2 | 0.9 | 1.5 | – | – | – | – | – | – | –
13 | Cc1cc(C)nc(NC(=O)c2ccc(Cl)cc2Cl)n1 [Compound 198] | 10 | 42 | 2.2 | 4.9549 | 1.0914 | – | – | – | – | – | – | –
14 | CC(C)N(CCO)C(=O)CCc1nnc(CCCc2ccccc2)o1 [Compound 199] | 12.6 | 42 | 2.2 | 1.2876 | 0.1862 | – | – | – | – | – | – | –
15 | c1ccc(CN2CCCC3(CCCN(Cc4nc(CC5CC5)no4)C3)C2)cc1 (centres unmarked) [Compound 200] | 8.91 | 42 | 2.1 | 1.4781 | −42.0662 | – | – | – | – | – | – | –
16 | Cn1c(=O)c2c(nc(Sc3ncnn3CC(=O)NC3CCCCC3)n2C)n(C)c1=O [Compound 201] | 11.2 | 42 | 2.1 | 2.3531 | −19.8816 | – | – | – | – | – | – | –

Row | Structure (SMILES) | EC50 [1] [µM] | Score (Table 12 compound data) | Fit Curve Class [2] | Fit HillSlope (curve fit) | Fit Zero Activity [%] [3] [%] | Fit Infinite Activity [%] (curve fit, activity at infinite concentration) | Fit LogAC50 [1] | Fit Curve Class | Fit HillSlope | Fit Zero Activity [%] | Score | EC50 [µM]
17 | NS(=O)(=O)c1ccc(NC(=O)Nc2ccc(Cl)cc2)cc1 [Compound 202] | – | – | – | – | – | – | – | 2.2 | 1.8617 | – | – | –
18 | CC1=C(C#N)C(=O)N(C)C(=O)/C1=C\NNc1ccc(F)cc1 [Compound 203] | 7.08 | 42 | 2.1 | 1.4781 | −47.2995 | – | – | – | – | – | – | –
19 | CCS(=O)(=O)N1CCN(c2ccc([N+](=O)[O-])c(NCC3CCCO3)c2)CC1 (centres unmarked) [Compound 204] | 10 | 42 | 2.2 | 3.5722 | 0.4864 | – | – | – | – | – | – | –
20 | O=C(NC(=S)NCCC1=CCCCC1)c1ccc(Br)o1 [Compound 205] | 7.08 | 42 | 2.1 | 1.4781 | −40.2978 | – | – | – | – | – | – | –
21 | CCCC(=O)Nc1ccccc1NC(=O)c1ccc(OCC)cc1 [Compound 206] | 11.2 | 42 | 2.1 | 4.095 | 13.9528 | – | – | – | – | – | – | –
22 | NS(=O)(=O)c1ccc(NC(=O)c2ccc(CNS(=O)(=O)c3cc(C(F)(F)F)ccc3Cl)cc2)cc1 [Compound 207] | 10 | 42 | 2.2 | 2.5334 | 0.1699 | – | – | – | – | – | – | –
23 | COc1ccc(CN2CCNC(=O)C2CC(=O)NCCc2c[nH]c3ccccc23)c(OC)c1 (centres unmarked) [Compound 208] | 10 | 42 | 2.2 | 3.1925 | −9.1413 | – | – | – | – | – | – | –
24 | O=Cc1cn(Cc2ccc(F)cc2Cl)c2ccccc12 [Compound 209] | – | – | – | – | – | – | – | 2.1 | 4.095 | 12.1779 | 42 | 15.8
25 | Cc1ccc(-c2nc(C)sc2CC(=O)OCC(=O)Nc2c(F)cccc2F)cc1 [Compound 210] | 12.6 | 42 | 2.1 | 4.9549 | 11.9156 | – | – | – | – | – | – | –
26 | CNC(=O)/C(=C\c1cccc(Oc2ccccc2)c1)NC(=O)c1ccccc1 [Compound 211] | 11.2 | 42 | 2.1 | 1.1341 | −0.265 | – | – | – | – | – | – | –
27 | O=S(=O)(NCC(c1ccco1)N1CCOCC1)c1ccc(Cl)cc1 (centres unmarked) [Compound 212] | 14.1 | 42 | 2.1 | 4.5045 | 9.0119 | – | – | – | – | – | – | –
28 | C=CCc1c(C)nc(-c2ccccc2)nc1N/N=C/c1ccccc1 [Compound 213] | 11.2 | 42 | 2.1 | 1.2876 | −1.0122 | – | – | – | – | – | – | –
29 | CCc1ccc(Sc2cc(C(=O)NCCN3CCOCC3)c3ccccc3n2)cc1 [Compound 214] | 11.2 | 42 | 2.1 | 2.0937 | 13.9034 | – | – | – | – | – | – | –
30 | O=C(Nc1ccc(Oc2cccnc2)cc1)c1ccccc1Cl [Compound 215] | 10 | 42 | 2.1 | 2.1211 | 13.9023 | – | – | – | – | – | – | –
31 | O=C(CNC(=O)c1cccc(F)c1)N/N=C/c1cc(Br)ccc1OCc1ccccc1 [Compound 216] | 10 | 42 | 2.2 | 0.8 | 3.67 | – | – | – | – | – | – | –
32 | COc1ccc(CCNC(=O)c2cc(-c3cc(C)ccc3O)n[nH]2)cc1OC [Compound 217] | 10 | 42 | 2.2 | 3.0654 | 9.7958 | – | – | – | – | – | – | –
